Measurements published in PubChem BioAssay (NCI).
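The compound was tested at five concentrations on cells cultured in 96-well plates, with a 48-hour exposure period. At the GI50, growth is halved. TGI denotes the concentration required for complete inhibition of growth.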

System: K-562 leukemia
Assay: growth of human tumour cells (NCI), 48 h

| SMILES | TGI [µM] | GI50 [µM] |
| --- | --- | --- |
| COc1cc2c(cc1OC)C1C3CCCCC3CCN1CC2 (stereo not given) | > 100 | – |
| NC(=O)c1c(NC(=O)c2ccccc2)sc2c1CCC(=O)C2 | > 100 | 0.402 |
| COc1cc(O)c2c(c1)C(=O)c1cc3c(c(O)c1C2=O)C(OC1OC(C)C(OC)C(O)C1OC)C(OC)C(C)(O)C3=O (stereo not given) | 19.4 | – |
| COc1cnc2c(c1)C(=O)c1c-2n(CCCN2CCOCC2)c(=O)c2cc(Cl)ccc12 | > 100 | 0.525 |
| Cc1cc(N[C@@H]2CCC[C@H](Nc3ccnc4cc(Cl)ccc34)C2)nc(N2CCCCCC2)n1 | 1.69 | 0.359 |

System: RPMI-8226 leukemia
Assay: growth of human tumour cells (NCI), 48 h

| SMILES | GI50 [µM] | TGI [µM] |
| --- | --- | --- |
| NC(=O)c1c(NC(=O)c2ccccc2)sc2c1CCC(=O)C2 | 0.248 | 0.751 |
| COc1cc(O)c2c(c1)C(=O)c1cc3c(c(O)c1C2=O)C(OC1OC(C)C(OC)C(O)C1OC)C(OC)C(C)(O)C3=O (stereo not given) | – | 4.6 |
| COc1cnc2c(c1)C(=O)c1c-2n(CCCN2CCOCC2)c(=O)c2cc(Cl)ccc12 | 0.426 | > 100 |
| Cc1cc(N[C@@H]2CCC[C@H](Nc3ccnc4cc(Cl)ccc34)C2)nc(N2CCCCCC2)n1 | 1.64 | 4.71 |

System: SK-MEL-5 melanoma
Assay: growth of human tumour cells (NCI), 48 h

| SMILES | TGI [µM] | GI50 [µM] |
| --- | --- | --- |
| COc1cc2c(cc1OC)C1C3CCCCC3CCN1CC2 (stereo not given) | > 100 | – |
| NC(=O)c1c(NC(=O)c2ccccc2)sc2c1CCC(=O)C2 | 3.04 | 1.64 |
| COc1cc(O)c2c(c1)C(=O)c1cc3c(c(O)c1C2=O)C(OC1OC(C)C(OC)C(O)C1OC)C(OC)C(C)(O)C3=O (stereo not given) | 3.86 | – |
| Cc1cc(N[C@@H]2CCC[C@H](Nc3ccnc4cc(Cl)ccc34)C2)nc(N2CCCCCC2)n1 | 3.27 | 1.86 |

System: NCI-H23 lung
Assay: growth of human tumour cells (NCI), 48 h

| SMILES | TGI [µM] | GI50 [µM] |
| --- | --- | --- |
| COc1cc2c(cc1OC)C1C3CCCCC3CCN1CC2 (stereo not given) | > 100 | – |
| NC(=O)c1c(NC(=O)c2ccccc2)sc2c1CCC(=O)C2 | 5.83 | 0.627 |
| COc1cc(O)c2c(c1)C(=O)c1cc3c(c(O)c1C2=O)C(OC1OC(C)C(OC)C(O)C1OC)C(OC)C(C)(O)C3=O (stereo not given) | 23.2 | – |
| COc1cnc2c(c1)C(=O)c1c-2n(CCCN2CCOCC2)c(=O)c2cc(Cl)ccc12 | > 100 | 0.308 |
| Cc1cc(N[C@@H]2CCC[C@H](Nc3ccnc4cc(Cl)ccc34)C2)nc(N2CCCCCC2)n1 | 5.43 | 2.03 |

System: SK-OV-3 ovarian
Assay: growth of human tumour cells (NCI), 48 h

| SMILES | TGI [µM] | GI50 [µM] |
| --- | --- | --- |
| COc1cc2c(cc1OC)C1C3CCCCC3CCN1CC2 (stereo not given) | > 100 | – |
| NC(=O)c1c(NC(=O)c2ccccc2)sc2c1CCC(=O)C2 | > 100 | 2.91 |
| COc1cc(O)c2c(c1)C(=O)c1cc3c(c(O)c1C2=O)C(OC1OC(C)C(OC)C(O)C1OC)C(OC)C(C)(O)C3=O (stereo not given) | 97 | – |
| COc1cnc2c(c1)C(=O)c1c-2n(CCCN2CCOCC2)c(=O)c2cc(Cl)ccc12 | > 100 | 0.397 |
| Cc1cc(N[C@@H]2CCC[C@H](Nc3ccnc4cc(Cl)ccc34)C2)nc(N2CCCCCC2)n1 | 3.73 | 1.86 |

System: MDA-MB-231 breast
Assay: growth of human tumour cells (NCI), 48 h

| SMILES | TGI [µM] | GI50 [µM] |
| --- | --- | --- |
| COc1cc2c(cc1OC)C1C3CCCCC3CCN1CC2 (stereo not given) | > 100 | – |
| NC(=O)c1c(NC(=O)c2ccccc2)sc2c1CCC(=O)C2 | 22.9 | 2.3 |
| COc1cc(O)c2c(c1)C(=O)c1cc3c(c(O)c1C2=O)C(OC1OC(C)C(OC)C(O)C1OC)C(OC)C(C)(O)C3=O (stereo not given) | 27.3 | – |
| COc1cnc2c(c1)C(=O)c1c-2n(CCCN2CCOCC2)c(=O)c2cc(Cl)ccc12 | > 100 | > 100 |
| Cc1cc(N[C@@H]2CCC[C@H](Nc3ccnc4cc(Cl)ccc34)C2)nc(N2CCCCCC2)n1 | 3.43 | 1.63 |

System: DU-145 prostate
Assay: growth of human tumour cells (NCI), 48 h

| SMILES | TGI [µM] | GI50 [µM] |
| --- | --- | --- |
| COc1cc2c(cc1OC)C1C3CCCCC3CCN1CC2 (stereo not given) | > 100 | – |
| NC(=O)c1c(NC(=O)c2ccccc2)sc2c1CCC(=O)C2 | > 100 | 4.14 |
| COc1cnc2c(c1)C(=O)c1c-2n(CCCN2CCOCC2)c(=O)c2cc(Cl)ccc12 | > 100 | 0.41 |
| Cc1cc(N[C@@H]2CCC[C@H](Nc3ccnc4cc(Cl)ccc34)C2)nc(N2CCCCCC2)n1 | 10.6 | 2.99 |

System: MALME-3M melanoma
Assay: growth of human tumour cells (NCI), 48 h

| SMILES | TGI [µM] | GI50 [µM] |
| --- | --- | --- |
| COc1cc2c(cc1OC)C1C3CCCCC3CCN1CC2 (stereo not given) | > 100 | – |
| NC(=O)c1c(NC(=O)c2ccccc2)sc2c1CCC(=O)C2 | 5.53 | 2.14 |
| COc1cc(O)c2c(c1)C(=O)c1cc3c(c(O)c1C2=O)C(OC1OC(C)C(OC)C(O)C1OC)C(OC)C(C)(O)C3=O (stereo not given) | 5.85 | – |
| COc1cnc2c(c1)C(=O)c1c-2n(CCCN2CCOCC2)c(=O)c2cc(Cl)ccc12 | > 100 | > 100 |
| Cc1cc(N[C@@H]2CCC[C@H](Nc3ccnc4cc(Cl)ccc34)C2)nc(N2CCCCCC2)n1 | 3.42 | 1.83 |

System: A549 NSCLC
Assay: growth of human tumour cells (NCI), 48 h

| SMILES | TGI [µM] | GI50 [µM] |
| --- | --- | --- |
| COc1cc2c(cc1OC)C1C3CCCCC3CCN1CC2 (stereo not given) | > 100 | – |
| NC(=O)c1c(NC(=O)c2ccccc2)sc2c1CCC(=O)C2 | > 100 | 3.58 |
| COc1cc(O)c2c(c1)C(=O)c1cc3c(c(O)c1C2=O)C(OC1OC(C)C(OC)C(O)C1OC)C(OC)C(C)(O)C3=O (stereo not given) | 16.1 | – |
| Cc1cc(N[C@@H]2CCC[C@H](Nc3ccnc4cc(Cl)ccc34)C2)nc(N2CCCCCC2)n1 | 4.94 | 2.19 |

System: MOLT-4 leukemia
Assay: growth of human tumour cells (NCI), 48 h

| SMILES | TGI [µM] | GI50 [µM] |
| --- | --- | --- |
| COc1cc2c(cc1OC)C1C3CCCCC3CCN1CC2 (stereo not given) | > 100 | – |
| NC(=O)c1c(NC(=O)c2ccccc2)sc2c1CCC(=O)C2 | 8.3 | 1.12 |
| COc1cc(O)c2c(c1)C(=O)c1cc3c(c(O)c1C2=O)C(OC1OC(C)C(OC)C(O)C1OC)C(OC)C(C)(O)C3=O (stereo not given) | 12.2 | – |
| COc1cnc2c(c1)C(=O)c1c-2n(CCCN2CCOCC2)c(=O)c2cc(Cl)ccc12 | > 100 | 0.267 |
| Cc1cc(N[C@@H]2CCC[C@H](Nc3ccnc4cc(Cl)ccc34)C2)nc(N2CCCCCC2)n1 | 5.73 | 1.6 |

System: A498 renal
Assay: growth of human tumour cells (NCI), 48 h

| SMILES | TGI [µM] | GI50 [µM] |
| --- | --- | --- |
| COc1cc2c(cc1OC)C1C3CCCCC3CCN1CC2 (stereo not given) | > 100 | – |
| NC(=O)c1c(NC(=O)c2ccccc2)sc2c1CCC(=O)C2 | 17.2 | 1.06 |
| COc1cc(O)c2c(c1)C(=O)c1cc3c(c(O)c1C2=O)C(OC1OC(C)C(OC)C(O)C1OC)C(OC)C(C)(O)C3=O (stereo not given) | 21.7 | – |
| Cc1cc(N[C@@H]2CCC[C@H](Nc3ccnc4cc(Cl)ccc34)C2)nc(N2CCCCCC2)n1 | 3.2 | 1.74 |

System: OVCAR-3 ovarian
Assay: growth of human tumour cells (NCI), 48 h

| SMILES | TGI [µM] | GI50 [µM] |
| --- | --- | --- |
| COc1cc2c(cc1OC)C1C3CCCCC3CCN1CC2 (stereo not given) | > 100 | – |
| NC(=O)c1c(NC(=O)c2ccccc2)sc2c1CCC(=O)C2 | 2.72 | 1.02 |
| COc1cc(O)c2c(c1)C(=O)c1cc3c(c(O)c1C2=O)C(OC1OC(C)C(OC)C(O)C1OC)C(OC)C(C)(O)C3=O (stereo not given) | 22.6 | – |
| COc1cnc2c(c1)C(=O)c1c-2n(CCCN2CCOCC2)c(=O)c2cc(Cl)ccc12 | > 100 | 0.783 |
| Cc1cc(N[C@@H]2CCC[C@H](Nc3ccnc4cc(Cl)ccc34)C2)nc(N2CCCCCC2)n1 | 4.06 | 1.91 |

System: HOP-62 NSCLC
Assay: growth of human tumour cells (NCI), 48 h

| SMILES | TGI [µM] | GI50 [µM] |
| --- | --- | --- |
| COc1cc2c(cc1OC)C1C3CCCCC3CCN1CC2 (stereo not given) | > 100 | – |
| NC(=O)c1c(NC(=O)c2ccccc2)sc2c1CCC(=O)C2 | > 100 | 3.66 |
| COc1cc(O)c2c(c1)C(=O)c1cc3c(c(O)c1C2=O)C(OC1OC(C)C(OC)C(O)C1OC)C(OC)C(C)(O)C3=O (stereo not given) | 44.2 | – |
| COc1cnc2c(c1)C(=O)c1c-2n(CCCN2CCOCC2)c(=O)c2cc(Cl)ccc12 | 22.4 | 0.274 |
| Cc1cc(N[C@@H]2CCC[C@H](Nc3ccnc4cc(Cl)ccc34)C2)nc(N2CCCCCC2)n1 | 3.03 | 1.37 |

System: CAKI-1 renal
Assay: growth of human tumour cells (NCI), 48 h

| SMILES | TGI [µM] | GI50 [µM] |
| --- | --- | --- |
| COc1cc2c(cc1OC)C1C3CCCCC3CCN1CC2 (stereo not given) | > 100 | – |
| NC(=O)c1c(NC(=O)c2ccccc2)sc2c1CCC(=O)C2 | 3.95 | 0.637 |
| COc1cc(O)c2c(c1)C(=O)c1cc3c(c(O)c1C2=O)C(OC1OC(C)C(OC)C(O)C1OC)C(OC)C(C)(O)C3=O (stereo not given) | 11 | – |
